In patent US20250082633A1, “COMPOUNDS AND METHODS FOR MODULATING SPLICING” (REMIX THERAPEUTICS INC., priority 2021, published 2025):
Where two headings read alike, the source gives them in different places.

Legend:
Format in all cases: cell-based
MYB mRNA = assay: RT-qPCR splicing assay, MYB canonical (CJ) and alternative (AJ) junction mRNA; conditions: Homo sapiens; for IC50: read-out: MYB CJ IC50; for AC50: increase in alternative junction mRNA, read-out: MYB AJ AC50
Method in brief: (§1)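 Splice-junction mRNAs (CJ, AJ) measured by TaqMan one-step RT-qPCR on cell lysates, using PPIA as reference for adherent A673 and GAPDH or GUSB for K562. Cells exposed for 24 h to 11 threefold concentrations up to 10 uM final, with DMSO at or below 0.25%.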

SMN2 mRNA = assay: RT-qPCR splicing assay, gene panel, SMN2 canonical junction (CJ) mRNA; conditions: Homo sapiens; decrease in CJ mRNA levels; larger panel of genes; Table 3; read-out: SMN2 CJ IC50
Method in brief: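 A673 (DMEM/10% FBS) or K562 (IMDM/10% FBS) cells were treated 24 h at 37 °C with an 11-point 3-fold dilution series, top final 10 uM, DMSO ≤0.25%. Lysates underwent one-step RT-qPCR for the canonical-junction isoform with GAPDH, GUSB or PPIA as housekeeper. ΔΔCt versus DMSO was converted to RQ (2^−ΔΔCt), then to percent response.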

HTT mRNA = assay: RT-qPCR splicing assay, HTT canonical (CJ) and alternative (AJ) junction mRNA; conditions: Homo sapiens; for IC50: read-out: HTT CJ IC50; for AC50: increase in alternative junction mRNA, read-out: HTT AJ AC50
Method in brief: as §1

[1] = decrease in CJ mRNA levels, larger panel of genes, Table 3
[2] = decrease in canonical junction mRNA, A673 or K562 cells, 24 hours treatment, Table 2
[3] = A673 or K562 cells, 24 hours treatment, Table 2

Row | Structure (SMILES) | IC50 (MYB mRNA; [1]) | IC50 (MYB mRNA; [2]) | AC50 (MYB mRNA; [3]) | IC50 (SMN2 mRNA) | IC50 (HTT mRNA; [1]) | IC50 (HTT mRNA; [2]) | AC50 (HTT mRNA; [3])
1 | COc1cc(-c2cc(C)c3nc(C)cn3n2)cc2cn(C3CCNCC3)nc12 [Compound 155, 6-(7-methoxy-2-(piperidin-4-yl)-2H-indazol-5-yl)-2,8-dimethylimidazo [1,2-b]pyridazine] | 0.1 to 1 µM | 0.1 to 1 µM | 0.1 to 1 µM | < 0.1 µM | < 0.1 µM | < 0.1 µM | 0.1 to 1 µM
2 | Cc1ccc2cc(-c3cc(F)c4nn(C5CCNCC5)cc4c3)ccc2n1 [Compound 163, 6-[7-fluoro-2-(4-piperidyl)indazol-5-yl]-2-methyl-quinoline] | > 10 µM | > 10 µM | > 10 µM | 1 to 10 µM | > 10 µM | > 10 µM | > 10 µM
3 | Cc1cn2cc(-c3cc(F)c4nn(C5CCNCC5)cc4c3)nc(C)c2n1 [Compound 132, 6-[7-fluoro-2-(4-piperidyl)indazol-5-yl]-2,8-dimethyl-imidazo[1,2-a]pyrazine] | 1 to 10 µM | 1 to 10 µM | 1 to 10 µM | 0.1 to 1 µM | 0.1 to 1 µM | 0.1 to 1 µM | 0.1 to 1 µM
4 | Cn1cc2cc(-c3ccc4cn(C5CCNCC5)nc4c3)cc(F)c2n1 [Compound 148, 7-fluoro-2-methyl-5-[2-(4-piperidyl)indazol-6-yl]indazole] | > 10 µM | > 10 µM | > 10 µM | 1 to 10 µM | 1 to 10 µM | 1 to 10 µM | > 10 µM
5 | Fc1cc(-c2ccc3ccncc3c2)cc2cn(C3CCNCC3)nc12 [Compound 158, 7-[7-fluoro-2-(4-piperidyl)indazol-5-yl]isoquinoline] | > 10 µM | > 10 µM | > 10 µM | 1 to 10 µM | > 10 µM | > 10 µM | > 10 µM
6 | Cc1cn2nc(-c3cc(F)c4nn(CC5CCNCC5)cc4c3)cc(C)c2n1 [Compound 212, 6-[7-fluoro-2-(4-piperidylmethyl)indazol-5-yl]-2,8-dimethyl-imidazo[1,2-b]pyridazine] | 0.1 to 1 µM | 0.1 to 1 µM | 0.1 to 1 µM | < 0.1 µM | < 0.1 µM | < 0.1 µM | < 0.1 µM
7 | Cc1cn2nc(-c3cc(F)c4nn(C5CCN(CCF)CC5)cc4c3)cc(C)c2n1 [Compound 152] | 0.1 to 1 µM | 0.1 to 1 µM | 0.1 to 1 µM | < 0.1 µM | < 0.1 µM | < 0.1 µM | 0.1 to 1 µM
8 | COC1=C(C)C2N=C(C)OC2C=C1c1cc(F)c2nn(C3CCNCC3)cc2n1 (centres unmarked) [Compound 144] | > 10 µM | > 10 µM | > 10 µM | 1 to 10 µM | > 10 µM | > 10 µM | > 10 µM
9 | Cc1ncc2cc(-c3cc(F)c4nn(C5CCNCC5)cc4c3)ccc2n1 [Compound 165, 6-[7-fluoro-2-(4-piperidyl)indazol-5-yl]-2-methyl-quinazoline] | > 10 µM | > 10 µM | > 10 µM | > 10 µM | > 10 µM | > 10 µM | > 10 µM
10 | Cc1cn2nc(-c3cc(F)c4nn(C5CCN(CC6CC6)CC5)cc4c3)cc(C)c2n1 [Compound 149, 6-[2-[1-(cyclopropylmethyl)-4-piperidyl]-7-fluoro-indazol-5-yl]-2,8-dimethyl-imidazo[1,2-b]pyridazine] | 0.1 to 1 µM | 0.1 to 1 µM | 0.1 to 1 µM | < 0.1 µM | < 0.1 µM | < 0.1 µM | < 0.1 µM
11 | Cn1cc2cc(-c3ccc4nn(C5CCNCC5)cc4n3)c(O)cc2n1 [Compound 110, 2-methyl-5-[2-(4-piperidyl)pyrazolo[4,3-b]pyridin-5-yl]indazol-6-ol] | 0.1 to 1 µM | 0.1 to 1 µM | 0.1 to 1 µM | < 0.1 µM | 0.1 to 1 µM | 0.1 to 1 µM | 1 to 10 µM
12 | COc1cc2nn(C3CCNCC3)cc2cc1-c1cc(C)c2nc(C)cn2n1 [Compound 159, 6-(6-methoxy-2-(piperidin-4-yl)-2H-indazol-5-yl)-2,8-dimethylimidazo[1,2-b]pyridazine] | > 10 µM | > 10 µM | > 10 µM | > 10 µM | > 10 µM | > 10 µM | > 10 µM
13 | Fc1cc(-c2ccc3ncccc3c2)cc2cn(C3CCNCC3)nc12 [Compound 162, 6-[7-fluoro-2-(4-piperidyl)indazol-5-yl]quinoline] | > 10 µM | > 10 µM | > 10 µM | 1 to 10 µM | > 10 µM | > 10 µM | > 10 µM
14 | Cn1cc2cc(-c3cc(F)c4nn(C5CCNCC5)cc4c3)ccc2n1 [Compound 145, 7-fluoro-5-(2-methylindazol-5-yl)-2-(4-piperidyl)indazole] | 1 to 10 µM | 1 to 10 µM | 0.1 to 1 µM | < 0.1 µM | 0.1 to 1 µM | 0.1 to 1 µM | 0.1 to 1 µM
15 | Cc1cn2nc(-c3cc(F)c4nn([C@@H]5CCNC6(CC6)C5)cc4c3)cc(C)c2n1 [Compound 173] | 0.1 to 1 µM | 0.1 to 1 µM | 0.1 to 1 µM | < 0.1 µM | < 0.1 µM | < 0.1 µM | < 0.1 µM
16 | Cc1cn2nc(-c3cc(F)c4nn(C5CCNCC5)cc4c3)cc2c(C)n1 [Compound 124, 2-[7-fluoro-2-(4-piperidyl)indazol-5-yl]-4,6-dimethyl-pyrazolo[1,5-a]pyrazine] | 0.1 to 1 µM | 0.1 to 1 µM | 0.1 to 1 µM | < 0.1 µM | < 0.1 µM | < 0.1 µM | < 0.1 µM
17 | Cc1nc2ccc(-c3cc(F)c4nn(C5CCNCC5)cc4c3)cc2o1 [Compound 135, 6-[7-fluoro-2-(4-piperidyl)indazol-5-yl]-2-methyl-1,3-benzoxazole] | 0.1 to 1 µM | 0.1 to 1 µM | 0.1 to 1 µM | < 0.1 µM | 0.1 to 1 µM | 0.1 to 1 µM | 0.1 to 1 µM
18 | Cc1c(O)c(-c2ccc3nn(C4CCNCC4)cc3n2)cc2cn(C)nc12 [Compound 109, 2,7-dimethyl-5-[2-(4-piperidyl)pyrazolo[4,3-b]pyridin-5-yl]indazol-6-ol] | 0.1 to 1 µM | 0.1 to 1 µM | 0.1 to 1 µM | < 0.1 µM | < 0.1 µM | < 0.1 µM | 0.1 to 1 µM
19 | Cc1cn2nc(-c3ccc4nn(C5CCNCC5)cc4c3)cc(C)c2n1 [Compound 192, 2,8-dimethyl-6-[2-(4-piperidyl)indazol-5-yl]imidazo[1,2-b]pyridazine] | 0.1 to 1 µM | 0.1 to 1 µM | 0.1 to 1 µM | < 0.1 µM | < 0.1 µM | < 0.1 µM | 0.1 to 1 µM
20 | Cn1cc2cc(-c3ccc4nn(C5CCNCC5)cc4c3)cc(F)c2n1 [Compound 105, 7-fluoro-2-methyl-5-[2-(4-piperidyl)indazol-5-yl]indazole] | 0.1 to 1 µM | 0.1 to 1 µM | 1 to 10 µM | < 0.1 µM | 0.1 to 1 µM | 0.1 to 1 µM | 0.1 to 1 µM
